Data taken from the supplement of paper PMC9663587.

Columns and labels:
Test in all cases: area over the GR curve, 72 h; higher = more effect;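 note: Dye Drop or Deep Dye Drop imaging of viable cells in 384-well plates (Hoechst nuclei, LIVE/DEAD dye), nine half-log doses, GR normalized to DMSO controls and time-zero plates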
HCC1806 = test system: HCC1806
CAL120 = test system: CAL120
BT549 = test system: BT549
MDAMB468 = test system: MDAMB468
SUM190PT = test system: SUM190PT
T47D = test system: T47D
HTERT_HME1 = test system: HTERT_HME1
EFM19 = test system: EFM19
HS578T = test system: HS578T
SUM1315 = test system: SUM1315
MCF7 = test system: MCF7

SMILES | area over the GR curve (HCC1806) [GR] | area over the GR curve (CAL120) [GR] | area over the GR curve (BT549) [GR] | area over the GR curve (MDAMB468) [GR] | area over the GR curve (SUM190PT) [GR] | area over the GR curve (T47D) [GR] | area over the GR curve (HTERT_HME1) [GR] | area over the GR curve (EFM19) [GR] | area over the GR curve (HS578T) [GR] | area over the GR curve (SUM1315) [GR] | area over the GR curve (MCF7) [GR]
COc1ccc2c(c1)[C@]1(C[C@H]1c1ccc3c(/C=C/c4ccc(CN5C[C@@H](C)O[C@@H](C)C5)cc4)n[nH]c3c1)C(=O)N2 | 0.94 | 0.518 | 0.889 | 0.838 | 0.751 | 0.79 | 0.734 | 0.397 | 0.941 | 0.83 | 0.906
COc1cccc(OCCCN)c1-c1cc(Nc2cnc(C#N)cn2)n[nH]1 | 1.39 | 0.344 | 1.4 | 0.227 | 0.598 | 0.18 | 0.596 | 0.041 | 1.3 | 0.809 | 0.794
CC(=O)Nc1cccc(-n2c(=O)n(C3CC3)c(=O)c3c(Nc4ccc(I)cc4F)n(C)c(=O)c(C)c32)c1 (max 1 µM) | 0.104 | 0.294 | 0.129 | 0.213 | 0.0746 | 0.213 | 0.434 | -0.1 | 0.491 | 0.389 | 0.277
CCc1cnn2c(NCc3ccc[n+]([O-])c3)cc(N3CCCC[C@H]3CCO)nc12 (max 1 µM) | 0.643 | 0.555 | 0.591 | 0.568 | 0.654 | 0.47 | 0.552 | 0.459 | 0.616 | 0.766 | 0.644
CC(=O)c1c(C)c2cnc(Nc3ccc(N4CCNCC4)cn3)nc2n(C2CCCC2)c1=O (max 3.162 µM) | 0.146 | 0.142 | -0.0495 | -0.0231 | 0.319 | 0.45 | 0.259 | 0.179 | 0.32 | 0.33 | 0.346
CCc1cncnc1N1CCN(Cc2nc3ccc(C(F)(F)F)cc3[nH]2)CC1 (max 10 µM) | -0.0429 | 0.0139 | -0.0132 | 0.118 | 0.0049 | 0.122 | 0.117 | -0.0563 | 0.0252 | 0.0975 | 0.0548
CCCCOc1c(C(=O)c2c(F)cc(C)cc2F)c[nH]c2nncc1-2 (max 10 µM) | 0.455 | 0.346 | 0.94 | 0.516 | 0.715 | 0.649 | 0.862 | 0.497 | 0.651 | 0.872 | 0.697
CCN1CCN(Cc2ccc(Nc3ncc(F)c(-c4cc(F)c5nc(C)n(C(C)C)c5c4)n3)nc2)CC1 (max 10 µM) | 0.392 | 0.478 | 0.127 | 0.176 | 0.66 | 0.766 | 0.428 | 0.478 | 0.634 | 0.582 | 0.702
CNc1nc(-c2ccc3c(N)n[nH]c3c2)cc(N2C[C@@H](C(=O)NC3CCCCC3)CC[C@H]2C)n1 (max 10 µM) | 0.0151 | 0.0896 | 0.0789 | 0.0821 | 0.292 | 0.394 | 0.128 | 0.293 | 0.157 | 0.291 | 0.256
CO[C@@H](C)Cn1c(=O)n(C)c2cnc3ccc(-c4cncc(C(C)(C)O)c4)cc3c21 (max 10 µM) | 0.43 | 0.696 | 0.765 | 0.669 | 1.16 | 0.894 | 0.676 | 0.813 | 0.688 | 0.693 | 0.834
Cc1nn(C)c(COc2ccc(N3CCN(S(=O)(=O)N(C)C)CC3)cc2)c1-c1cccc2c(CCCOc3cccc4ccccc34)c(C(=O)O)n(CCN3CCOCC3)c12 (max 10 µM) | -0.0123 | 0.0152 | 0.0083 | 0.0206 | -0.063 | 0.0143 | 0.339 | -0.0581 | -0.0079 | -0.0531 | -0.0002
CN(C)CC[C@H](CSc1ccccc1)Nc1ccc(S(=O)(=O)NC(=O)c2ccc(N3CCN(Cc4ccccc4-c4ccc(Cl)cc4)CC3)cc2)cc1[N+](=O)[O-] [ABT-737] (max 10 µM) | -0.111 | 0.2 | -0.0258 | 0.086 | 0.492 | -0.0166 | 0.081 | 0.111 | 0.026 | 0.0822 | 0.0119
C=CCn1c(=O)c2cnc(Nc3ccc(N4CCN(C)CC4)cc3)nc2n1-c1cccc(C(C)(C)O)n1 [AZD1775] (max 10 µM) | 0.847 | 0.483 | 0.446 | 0.47 | 0.615 | 0.113 | 0.441 | 0.23 | 0.759 | 1.02 | 0.692
CNC(=O)c1cccc(-c2ccc3c(N4CCOC[C@@H]4C)nc(N4CCOC[C@@H]4C)nc3n2)c1 [AZD2014] (max 10 µM) | 0.349 | 0.464 | 0.491 | 0.401 | 0.844 | 0.959 | 0.601 | 0.829 | 0.504 | 0.663 | 0.854
NC1(C(=O)N[C@@H](CCO)c2ccc(Cl)cc2)CCN(c2nc[nH]c3nccc2-3)CC1 [AZD5363] (max 10 µM) | 0.0705 | 0.0399 | 0.211 | 0.135 | 0.272 | 0.623 | 0.188 | 0.304 | 0.248 | 0.144 | 0.212
C[C@@H]1COCCN1c1cc(C2([S@](C)(=N)=O)CC2)nc(-c2cc[nH]c3nccc2-3)n1 [AZD6738] (max 10 µM) | 0.307 | -0.169 | 0.0821 | 0.0381 | 0.124 | -0.205 | -0.0027 | 0.0109 | 0.0772 | 0.0543 | 0.179
NC(=O)Nc1cc(-c2cccc(F)c2)sc1C(=O)N[C@H]1CCCNC1 [AZD7762] (max 10 µM) | 0.89 | 0.492 | 0.601 | 0.487 | 0.57 | -0.0211 | 0.435 | 0.222 | 0.863 | 0.68 | 0.597
